Patent US20210084902A1, “FUNGICIDAL MIXTURE COMPRISING SUBSTITUTED 3-PHENYL-5-(TRIFLUOROMETHYL)-1,2,4-OXADIAZOLES” (BASF SE, priority 2017, published 2021)
Read-outs that look alike come from different tables or passages of the source.

Experiments:
Assay type in all cases: cell-based
[1] = test system: Colletotrichum orbiculare; assay: Fungicidal activity against Colletotrichum orbiculare in the microtiterplate test
Pyricularia oryzae = assay: microbe, parasite or virus in culture; settings: for Observed efficacy: single compound
Septoria tritici = assay: Fungicidal activity against Septoria tritici, micro titer plate (MTP) test; settings: for inhibition of growth at […] / inhibition of growth at 1 ppm / Observed efficacy / inhibition of growth at 4 ppm: Table V.4, component B alone
Botrytis cinerea = assay: Fungicidal activity against Botrytis cinerea, micro titer plate (MTP) test; settings: component B alone; for inhibition of growth at […] / inhibition of growth at 1 ppm: Botrytis cinerea, 168 h, read-out: Observed efficacy
[2] = Pyricularia oryzae, 168 h, read-out: Observed efficacy
[3] = Zymoseptoria tritici, 168 h, 0.016 ppm, read-out: Observed efficacy
[4] = Colletotrichum orbiculare, 0.063 ppm, read-out: Observed efficacy
[5] = Colletotrichum orbiculare, 0.25 ppm, read-out: Observed efficacy
[6] = Zymoseptoria tritici, 168 h, 0.063 ppm, read-out: Observed efficacy
[7] = Zymoseptoria tritici, 168 h, 0.25 ppm, read-out: Observed efficacy
[8] = Zymoseptoria tritici, 168 h, 1 ppm, read-out: Observed efficacy
[9] = Colletotrichum orbiculare, 1 ppm, read-out: Observed efficacy
[10] = Colletotrichum orbiculare, read-out: Observed efficacy
[11] = Zymoseptoria tritici, 168 h, 4 ppm, read-out: Observed efficacy
[12] = Colletotrichum orbiculare, 0.016 ppm, read-out: Observed efficacy

Cn1cc(C(=O)Nc2cccc3c2[C@@H]2CC[C@H]3C2=C(Cl)Cl)c(C(F)F)n1 (racemic) [Benzovindiflupyr, benzovindiflupyr]
Observed efficacy ([1]; 0.004 ppm): 2

Cc1cccc(-n2nnn(C)c2=O)c1COc1ccn(-c2ccc(Cl)cc2)n1 [A.1.25, 1-[2-[[1-(4-chlorophenyl)pyrazol-3-yl]oxymethyl]-3-methyl-phenyl]-4-methyl-tetrazol-5-one]
inhibition of growth at 0.004 ppm (Pyricularia oryzae; [2]): 4% | inhibition of growth at 0.004 ppm (Septoria tritici; Zymoseptoria tritici, 168 h, read-out: Observed efficacy): 3%

COc1ccnc(C(=O)NC2COC(=O)[C@H](Cc3ccccc3)[C@@H](OC(=O)C(C)C)[C@H](C)OC2=O)c1O (stereo partly drawn) [A.2.3, [(6S,7R,8R)-8-benzyl-3-[(3-hydroxy-4-methoxy-pyridine-2-carbonyl)amino]-6-methyl-4,9-dioxo-1,5-dioxonan-7-yl] 2-methylpropanoate]
inhibition of growth at […] (Botrytis cinerea; 0.25 ppm): 0% | inhibition of growth at 1 ppm (Botrytis cinerea; 1 ppm): 11% | inhibition of growth at […] (Septoria tritici; [3]): 52% | inhibition of growth at […] [1, 4]: 47% | inhibition of growth at […] [1, 5]: 77%

CCC(=O)OCOc1c(OC)ccnc1C(=O)NC1COC(=O)[C@H](Cc2ccccc2)[C@@H](OC(=O)C(C)C)[C@H](C)OC1=O (stereo partly drawn) [A.2.5, [(6S,7R,8R)-8-benzyl-3-[[4-methoxy-3-(propanoyloxymethoxy)pyridine-2-carbonyl]amino]-6-methyl-4,9-dioxo-1,5-dioxonan-7-yl] 2-methylpropanoate]
inhibition of growth at 1 ppm (Botrytis cinerea; 1 ppm): 6% | inhibition of growth at […] (Septoria tritici; [6]): 33% | inhibition of growth at […] [1, 5]: 72%

Cc1nn(C)cc1C(=O)Nc1cccc2c1C(C)CC2(C)C (stereo not drawn) [A.3.24, 1,3-dimethyl-N-(1,1,3-trimethylindan-4-yl)pyrazole-4-carboxamide]
inhibition of growth at […] (Botrytis cinerea; 0.25 ppm): 41% | inhibition of growth at […] (Septoria tritici; [7]): 25% | inhibition of growth at 1 ppm (Septoria tritici; [8]): 76% | inhibition of growth at […] [1, 5]: 3% | inhibition of growth at 1 ppm [1, 9]: 12%

CC1CC(C)(C)c2cccc(NC(=O)c3cccnc3C(F)F)c21 (stereo not drawn) [A.3.32, 2-(difluoromethyl)-N-(1,1,3-trimethyl-indan-4-yl)pyridine-3-carboxamide]
inhibition of growth at […] (Botrytis cinerea; 0.25 ppm): 32% | inhibition of growth at […] (Septoria tritici; [7]): 22% | inhibition of growth at 1 ppm (Septoria tritici; [8]): 70% | inhibition of growth at 1 ppm [1, 9]: 15%

CC[C@H]1CC(C)(C)c2cccc(NC(=O)c3cccnc3C(F)F)c21 [A.3.34, 2-(difluoromethyl)-N-[(3S)3-ethyl-1,1-dimethyl-indan-4-yl]pyridine-3-carboxamide]
inhibition of growth at […] (Botrytis cinerea; 0.25 ppm): 1% | inhibition of growth at 1 ppm (Botrytis cinerea; 1 ppm): 51% | inhibition of growth at […] (Septoria tritici; [7]): 17% | inhibition of growth at 1 ppm [1, 9]: 14%

CCCCCCCCc1c(CC)nc2ncnn2c1N [Ametoctradin, ametoctradin]
Observed efficacy (Pyricularia oryzae; 16 ppm): 8 | Observed efficacy (Pyricularia oryzae; 63 ppm): 13 | Observed efficacy ([1]; 63 ppm): 14

CO/C=C(/C(=O)OC)c1ccccc1Oc1cc(Oc2ccccc2C#N)ncn1 [Azoxystrobin, azoxystrobin]
Observed efficacy ([1]; 0.004 ppm): 1

COC(=O)C(C)N(C(=O)Cc1ccccc1)c1c(C)cccc1C (stereo not drawn) [Benalaxyl, benalaxyl]
inhibition of growth at 1 ppm (Pyricularia oryzae; [2]): 2% | inhibition of growth at 4 ppm (Pyricularia oryzae; [2]): 8% | inhibition of growth at 4 ppm [1, 10]: 13%

COC(=O)[C@@H](C)N(C(=O)Cc1ccccc1)c1c(C)cccc1C [Benalaxyl-M, benalaxyl-M]
Observed efficacy (Botrytis cinerea; 4 ppm): 7% | Observed efficacy (Pyricularia oryzae; 1 ppm): 3 | Observed efficacy (Pyricularia oryzae; 4 ppm): 12 | Observed efficacy ([1]; 1 ppm): 2

O=C(Nc1ccccc1-c1ccc(Cl)cc1)c1cccnc1Cl [Boscalid, boscalid]
inhibition of growth at 4 ppm (Pyricularia oryzae; [2]): 5% | inhibition of growth at 1 ppm (Septoria tritici; [8]): 61% | inhibition of growth at […] [1, 5]: 0% | inhibition of growth at 1 ppm [1, 9]: 0%

COC(=O)Nc1nc2ccccc2[nH]1 [Carbendazim, carbendazim]
inhibition of growth at […] [1, 4]: 60%

O=C(Cc1ccccc1)N/C(=N\OCC1CC1)c1c(C(F)(F)F)ccc(F)c1F [Cyflufenamid, cyflufenamid]
inhibition of growth at 16 ppm ([1]; Colletotrichum orbiculare, 16 ppm, read-out: Observed efficacy): 11%

CC(C1CC1)C(O)(Cn1cncn1)c1ccc(Cl)cc1 (stereo not drawn) [Cyproconazol, cyproconazole]
inhibition of growth at 4 ppm [1, 10]: 4%

CNC(=O)/C(=N/OC)c1ccccc1COc1cc(C)ccc1C [Dimoxystrobin, dimoxystrobin]
Observed efficacy (Botrytis cinerea; 1 ppm): 14% | Observed efficacy ([1]; 1 ppm): 71

N#Cc1sc2c(=O)c3ccccc3c(=O)c=2sc1C#N [Dithianon, dithianon]
inhibition of growth at […] [1, 4]: 21%

CC1CC(C)(C)c2c(F)ccc(NC(=O)c3cn(C)nc3C(F)F)c21 (stereo not drawn) [Fluindapyr, 3-(difluoromethyl)-N-(7-fluoro-1,1,3-trimethyl-indan-4-yl)-1-methyl-pyrazole-4-carboxamide]
inhibition of growth at […] (Botrytis cinerea; 0.25 ppm): 21% | inhibition of growth at […] (Septoria tritici; [7]): 21% | inhibition of growth at 1 ppm (Septoria tritici; [8]): 58% | inhibition of growth at 1 ppm [1, 9]: 12%

O=C(NCCc1ncc(C(F)(F)F)cc1Cl)c1ccccc1C(F)(F)F [Fluopyram, fluopyram]
inhibition of growth at […] (Septoria tritici; [6]): 13% | inhibition of growth at […] (Septoria tritici; [7]): 33% | inhibition of growth at […] [1, 5]: 15%

O=c1c2cc(F)ccc2nc(-n2cncn2)n1-c1ccc(Cl)cc1Cl [Fluquinconazol, fluquinconazole]
inhibition of growth at […] [1, 4]: 3% | inhibition of growth at 1 ppm [1, 9]: 12%

Cn1cc(C(=O)Nc2ccccc2-c2cc(F)c(F)c(F)c2)c(C(F)F)n1 [Fluxapyroxad, fluxapyroxad]
Observed efficacy ([1]; 0.004 ppm): 1

CC(C)c1ccc(Cl)cc1CN(C(=O)c1c(C(F)F)nn(C)c1F)C1CC1 [Isoflucypram, N-[(5-chloro-2-isopropyl-phenyl)methyl]-N-cyclopropyl-3-(difluoromethyl)-5 fluoro-1-methyl-pyrazole-4-carboxamide]
inhibition of growth at […] (Botrytis cinerea; 0.25 ppm): 53% | inhibition of growth at 1 ppm (Pyricularia oryzae; [2]): 11% | inhibition of growth at […] (Septoria tritici; [7]): 61% | inhibition of growth at 1 ppm (Septoria tritici; [8]): 62%

CCN(C)C=Nc1cc(C)c(Oc2nc(Cc3ccc(Cl)cc3)ns2)cc1C [K.1.29, N′-[4-[[3-[(4-chorophenyl)methyl]-1,2,4-thiadiazo-5-yl]oxy]-2,5-dimethyl-phenyl]-N-ethyl-N-methyl-formamidine]
Observed efficacy (Septoria tritici; 4 ppm): 6

CCN(C)C=Nc1cc(Br)c(OC2Cc3ccccc3C2)nc1C [K.1.30, N′-(5-bromo-6-indan-2-yloxy-2-methyl-3-pyridyl)-N-ethyl-N-methyl-formamidine]
inhibition of growth at 1 ppm (Septoria tritici; [8]): 0% | inhibition of growth at 4 ppm (Septoria tritici; [11]): 0%

CCN(C)C=Nc1cc(Br)c(OC(C)c2cc(F)cc(F)c2)nc1C (stereo not drawn) [K.1.31, N′-[5-bromo-6-[1-(3,5-difluorophenyl)ethoxy]-2-methyl-3-pyridyl]-N-ethyl-N-methyl-formamidine]
inhibition of growth at 1 ppm (Botrytis cinerea; 1 ppm): 53% | inhibition of growth at 1 ppm (Septoria tritici; [8]): 5% | inhibition of growth at 4 ppm (Septoria tritici; [11]): 62%

CCCCCOC(=O)Nc1cccc(CO/N=C(/c2ccccc2)c2nnnn2C)n1 [K.1.42, pentyl N-[6-[[(Z)-[(1-methyltetrazol-5-yl)-phenyl-methylene]amino]oxymethyl]-2-pyridyl]carba-mate]
Observed efficacy (Pyricularia oryzae; 1 ppm): 9 | Observed efficacy ([1]; 1 ppm): 21

CCCOCC(C)Oc1nc(C)c(N=CN(C)CC)cc1Br (stereo not drawn) [K.1.54, N′-[5-bromo-2-methyl-6-(1-methyl-2-propoxy-ethoxy)-3-pyridyl]-N-ethyl-N-methyl-formamidine]
inhibition of growth at 1 ppm (Pyricularia oryzae; [2]): 19% | inhibition of growth at 1 ppm (Septoria tritici; [8]): 3%

CO/N=C(/C(=O)OC)c1ccccc1COc1ccccc1C [Kresoxim-methyl, kresoxim-methyl]
inhibition of growth at […] [1, 5]: 45%

CO/N=C(/C(=O)OC)c1ccccc1COc1ccccc1C [Kresoximmethyl]
inhibition of growth at 1 ppm (Pyricularia oryzae; [2]): 58% | inhibition of growth at […] (Septoria tritici; [6]): 41%

CC1(C)CCC(Cc2ccc(Cl)cc2)C1(O)Cn1cncn1 (stereo not drawn) [Metconazol, metconazole]
inhibition of growth at […] [1, 4]: 11%

COc1cc(C)c(C(=O)c2c(OC)ccc(Br)c2C)c(OC)c1OC [Metrafenon]
Observed efficacy (Pyricularia oryzae; 4 ppm): 5 | Observed efficacy (Pyricularia oryzae; 16 ppm): 21 | Observed efficacy (Septoria tritici; 4 ppm): 1 | Observed efficacy (Septoria tritici; 16 ppm): 1

COc1cc(C)c(C(=O)c2c(OC)ccc(Br)c2C)c(OC)c1OC [Metrafenone, metrafenone]
inhibition of growth at 4 ppm [1, 10]: 14%

CC(C)CC(C)c1sccc1NC(=O)c1cn(C)nc1C(F)(F)F (stereo not drawn) [Penthiopyrad, penthiopyrad]
inhibition of growth at […] (Septoria tritici; [6]): 5% | inhibition of growth at […] (Septoria tritici; [7]): 28% | inhibition of growth at […] [1, 5]: 8%

CCCC1COC(Cn2cncn2)(c2ccc(Cl)cc2Cl)O1 (stereo not drawn) [Propiconazol, propiconazole]
inhibition of growth at […] (Septoria tritici; [6]): 17% | inhibition of growth at […] [1, 12]: 3% | inhibition of growth at […] [1, 4]: 3% | inhibition of growth at […] [1, 5]: 15%

OC(Cc1ccccc1Cl)(Cn1nc[nH]c1=S)C1(Cl)CC1 (stereo not drawn) [Prothioconazol, prothioconazole]
inhibition of growth at […] [1, 5]: 14%

COc1cc(C)c(C(=O)c2c(OC)ncc(Cl)c2C)c(OC)c1OC [Pyriofenon, pyriofenone]
Observed efficacy (Botrytis cinerea; 1 ppm): 2%

CC(C)(C)C(O)(CCc1ccc(Cl)cc1)Cn1cncn1 (stereo not drawn) [Tebuconazol, tebuconazole]
inhibition of growth at 0.0663 ppm (Pyricularia oryzae; [2]): 4% | inhibition of growth at […] [1, 4]: 2% | inhibition of growth at […] [1, 5]: 14%

CON=C(C(=O)OC)c1ccccc1CON=C(C)c1cccc(C(F)(F)F)c1 [Trifloxystrobin, trifloxystrobin]
inhibition of growth at […] (Botrytis cinerea; 0.063 ppm): 3% | inhibition of growth at […] (Septoria tritici; [3]): 43% | inhibition of growth at […] [1, 12]: 9%

CC1(C)CCC(=Cc2ccc(Cl)cc2)C1(O)Cn1cncn1 (stereo not drawn) [Triticonazol, triticonazole]
inhibition of growth at 1 ppm [1, 9]: 11%

mancozeb
Observed efficacy (Septoria tritici; 1 ppm): 9 | Observed efficacy ([1]; 1 ppm): 24
